Experimental data: PubChem BioAssay (NCI)
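Grown in 96-well plates, cells were treated for 48 hours with each compound at five concentrations. Insufficient inhibition: endpoint recorded as highest concentration tested. At the GI50, growth is halved. TGI denotes the concentration required for complete inhibition of growth.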

How the values were obtained:
Assay in all cases: growth of human tumour cells (NCI), 48 h
[1] = tested on: OVCAR-3 ovarian
[2] = tested on: HCC-2998 colon
[3] = tested on: LOX IMVI melanoma
[4] = tested on: IGROV1 ovarian
[5] = tested on: DU-145 prostate
[6] = tested on: OVCAR-5 ovarian
[7] = tested on: SW-620 colon
[8] = tested on: CAKI-1 renal
[9] = tested on: PC-3 prostate
[10] = tested on: NCI/ADR-RES ovarian

Structure (SMILES) | GI50 [1] [µM] | TGI [1] [µM] | GI50 [2] [µM] | TGI [2] [µM] | GI50 [3] [µM] | TGI [3] [µM] | GI50 [4] [µM] | TGI [4] [µM] | GI50 [5] [µM] | TGI [5] [µM] | GI50 [6] [µM] | TGI [6] [µM] | GI50 [7] [µM] | TGI [7] [µM] | GI50 [8] [µM] | TGI [8] [µM] | GI50 [9] [µM] | TGI [9] [µM] | GI50 [10] [µM] | TGI [10] [µM]
COc1ccc(OC)c(-c2nc3sccn3c2/C=C2/C(=O)Nc3ccc(Cl)cc32)c1 | 21.7 | 55.2 | 18.4 | 33.9 | 18.2 | 40.5 | 33.5 | > 100 | 41.3 | > 100 | 30 | > 100 | 31.2 | > 100 | 30.1 | > 100 | 27.2 | > 100 | 25.6 | 89.8
CC(=O)Oc1ccc(OC(C)=O)c2ccccc12 | 3.55 | 12.9 | 17.5 | 31.7 | 14.8 | 30.7 | 3.2 | 11.5 | 15.9 | 29.6 | 17.5 | 31.7 | 13.8 | 33.2 | 6.79 | 23.3 | 6.24 | 25.6 | 3.27 | 15.2
C=C1CCC2C3(C)COC(c4ccc(NC(C)=O)cc4)OC3CCC2(C)C1C/C=C1/C(=O)OCC1O (stereo not given) | > 100 | > 100 | 7.75 | > 100 | 21 | > 100 | > 100 | > 100 | > 100 | > 100 | > 100 | > 100 | 64.3 | > 100 | 4.71 | > 100 | 3.39 | > 100 | 7.37 | > 100
COc1ccccc1/C=C\c1cnnc2ccccc12 |  | > 10 |  | > 10 |  | > 10 |  | > 10 |  | > 10 |  | > 10 |  | > 10 |  | > 10 |  | > 10 |  | > 10
CN1/C(=C\C(I)C(I)C2=[N+](C)c3ccccc3C2(C)C)C(C)(C)c2ccccc21 (stereo not given) | 0.304 | 13.8 | 0.371 | 16.9 | 0.295 | 13.4 | 0.464 | 42.5 | 0.386 | > 56.7 | 1.25 | > 70.5 | 0.333 | 17 | 0.974 | > 38.6 | 0.177 | 12.3 | 13.3 | 42.2
O=C(c1ccccc1)C1C(C(=O)c2ccccc2)N1Cc1ccccc1 (stereo not given) |  | 99.2 |  | > 100 |  | > 100 |  | > 100 |  | 85.8 |  | > 100 |  | > 100 |  | > 100 |  | > 100 |  | > 100
C#CCN1C(=O)/C(=c2\sc3n(c2=O)C2C(NN=3)N(CC)C(=O)N2CC)c2ccccc21 (stereo not given) | 0.316 | 1.69 | 1.19 | > 100 | 0.73 | > 100 | 0.589 | > 91.1 | 1.04 | > 38.6 | 1.21 | > 100 | 0.422 | > 100 | 0.459 | > 54.2 | 0.463 | > 100 | 0.712 | 21.9
CC1(C)CCC[C@]23C(=O)O[C@](O)(C(=O)C4=C[C@@](C)(/C=C/CCCc5ccc6ccc7cccc8ccc5c6c78)CC[C@@]42O)[C@@H]13 | 0.174 | 0.336 | 0.176 | 0.323 | 0.164 | 0.31 | 0.175 | 0.329 | 0.179 | 0.326 | 0.187 | 0.376 | 0.179 | 0.379 | 0.183 | 0.364 | 0.166 | 0.378 | 0.221 | 0.532
CN(C)CCCNc1nn2c(=O)c3ccccc3nc2c2ccccc12 | 10.5 | 26.4 | 11.6 | 26.9 | 3.8 | 17.2 | 6.19 | 47.8 | 10.4 | 28.4 | 12.8 | 34.3 | 4.94 | 19 | 4.49 | 25.3 | 11.7 | 36.9 | 12.3 | 35.5
CC[C@@]1(O)C(=O)NCc2c1cc1n(c2=O)Cc2cc3ccccc3nc2-1 | 34.4 | > 100 | 74 | > 100 | 2.06 | > 100 | 12.1 | > 100 | 2.28 | > 45.8 | 15.1 | > 100 | 3.39 | > 100 | 0.754 | 11 | 7.57 | > 100 | 2.92 | > 48.2
Cn1c2ccccc2c(=Nc2ccccc2)c2c3ccccc3[nH]c21 |  |  | 3.23 | 46.4 |  |  | 1.64 | > 100 | 1.74 | 4.36 | 7.6 | 59.9 | 1.09 | 2.9 | 0.78 | 2.05 | 1.69 | 6.2 | 6.75 | 61.2
C(=N\Nc1nnc2c(n1)[nH]c1ccccc12)/c1cccnc1 |  | > 100 |  | > 100 |  | > 100 |  | > 100 |  | > 100 |  | > 100 |  | > 100 |  | > 100 |  | > 100 |  | > 100
O=C1c2ccccc2C(=O)c2c(NCCCNCCO)ccc(NCCCNCCO)c21 |  | 27.3 |  | 16.7 |  | 14.9 |  | > 49 |  | 35.8 |  | 44.7 |  | 17.6 |  | 98.2 |  | 22.6 |  | > 100
C/C(=C\c1ccc(Cl)cc1)C(C)(C)C(=O)O |  | > 100 |  | > 100 |  |  |  | > 100 |  | > 100 |  | > 100 |  | > 100 |  | > 100 |  | > 100 |  | > 100
